According to PMC6877102, “A squalamine derivative, NV669, as a novel PTP1B inhibitor: in vitro and in vivo effects on pancreatic and hepatic tumor growth” (Oncotarget, 2019):

Molecular target: T1, Protein Tyrosine Phosphatase 1B (PTP1B) (Homo sapiens, UniProt P18031)
T1 construct: gene PTPN1; residues 1-322, C-terminal deletion
T1 sequence (P18031 1-322): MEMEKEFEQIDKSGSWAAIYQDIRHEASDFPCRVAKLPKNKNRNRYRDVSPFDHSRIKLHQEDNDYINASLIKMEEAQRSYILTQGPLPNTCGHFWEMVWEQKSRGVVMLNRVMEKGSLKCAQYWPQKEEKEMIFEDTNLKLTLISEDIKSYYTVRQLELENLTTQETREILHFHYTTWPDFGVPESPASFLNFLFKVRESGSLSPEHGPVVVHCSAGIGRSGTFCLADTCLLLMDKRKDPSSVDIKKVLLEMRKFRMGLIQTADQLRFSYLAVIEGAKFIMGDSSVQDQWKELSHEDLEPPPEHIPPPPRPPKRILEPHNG
Assay: Malachite green phosphate release assay with IR5 phosphopeptide on recombinant human PTP1B
Type: biochemical

SMILES	Malachite green phosphate release assay with IR5 phosphopeptide on recombinant h
CC(C)CCC[C@@H](C)[C@H]1CC[C@H]2[C@@H]3C[C@@H](NCCCNCCCCNCCCN)[C@H]4C[C@@H](O)CC[C@]4(C)[C@H]3CC[C@]12C [claramine]	Like claramine (a PTP1B inhibitor used here as positive control), we found that NV669 blocked significantly in vitro PTP1B activity
CC(C)CCC[C@@H](C)[C@H]1CCC2C3C[C@@H](O)C4=C[C@@H](NCCCNCCCCNCCCN)CC[C@]4(C)C3CC[C@@]21C (some centres unmarked) [NV669]	we found that NV669 blocked significantly in vitro PTP1B activity in a dose- and time-dependent manner
